Test results taken from patent US10093623B2, “Cyclic amides as MetAP-2 inhibitors” (MERCK PATENT GmbH, priority 2012, dated 2018).

Target: MetAP-2 (Homo sapiens, UniProt P50579)
Experiment: MetAP-2 activity measurement (coupled enzymatic reactions, Met-Arg-Ser substrate, dianisidine detection at 450 nm)
Assay type: biochemical
Conditions: Inhibition of MetAP-2; read-out: IC50 enzyme
Procedure: MetAP-2 Activity Measurement
The MetAP-2 activity is determined by coupling enzymatic reactions. The tripeptide Met-Arg-Ser (MAS) is employed as substrate. The methionine liberated is firstly converted into Metox and H2O2 by L-aminooxidase (AAO). In the second step, the peroxidase (POD) with the aid of the H2O2 catalyses the oxidation of the leukodye dianisidine to dianisidineox, the increase of which is detected photometrically at 450 nm.
MetAP-2 activity can be recorded continuously as kinetics. The reaction scheme illustrates that one mol of dianisidineox is formed per mol of methionene. The MetAP-2 enzyme activity can therefore be calculated directly as A absorption per time unit. Qualification of the MetAP-2 activity (mol of Met/time unit) is possible with the aid of the dianisidineox extinction coefficient.
The change in extinction per time unit is depicted graphically and a slope calculation is carried out in the visually linear region of the reaction.

MetAP-2, sequence (P50579 whole entry, species assumed): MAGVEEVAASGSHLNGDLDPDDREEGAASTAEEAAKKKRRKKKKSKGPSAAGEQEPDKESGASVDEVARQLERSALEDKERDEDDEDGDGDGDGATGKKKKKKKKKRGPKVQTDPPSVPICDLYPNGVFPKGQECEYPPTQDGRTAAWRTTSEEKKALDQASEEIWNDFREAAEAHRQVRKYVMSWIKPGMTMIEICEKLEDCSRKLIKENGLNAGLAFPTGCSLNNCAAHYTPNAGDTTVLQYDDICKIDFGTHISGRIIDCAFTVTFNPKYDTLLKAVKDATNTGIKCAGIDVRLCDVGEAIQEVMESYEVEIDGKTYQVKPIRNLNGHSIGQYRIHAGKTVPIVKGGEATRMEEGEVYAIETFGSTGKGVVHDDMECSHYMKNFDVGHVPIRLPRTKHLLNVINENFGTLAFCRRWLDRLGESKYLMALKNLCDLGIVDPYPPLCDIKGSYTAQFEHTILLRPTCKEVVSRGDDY

SMILES	IC50 [nM]
O=C(N1CCN(CCO)CC1)[C@@]1(O)CCN(c2ccccc2)C1=O [A57, (S)-3-Hydroxy-3-[4-(2-hydroxy-ethyl)piperazine-1-carbonyl]-1-phenylpyrrolidin-2-one]	> 10000
O=C(NCCCn1ccnc1)[C@@]1(O)CCN(c2ccccc2)C1=O [A58, N-(3-Imidazol-1-ylpropyl)-(S)-3-hydroxy-2-oxo-1-phenylpyrrolidine-3-carboxamide]	> 10000
CN(C)CCNC(=O)[C@@]1(O)CCN(c2ccccc2)C1=O [A59, N-(2-Dimethylaminoethyl)-(S)-3-hydroxy-2-oxo-1-phenylpyrrolidine-3-carboxamide]	> 10000
O=C(NCCc1ccc(Oc2ccccc2)cc1)[C@@]1(O)CCN(c2ccccc2)C1=O [A60, N-[2-(4-Phenoxyphenyl)ethyl]-(S)-3-hydroxy-2-oxo-1-phenyl-pyrrolidine-3-carboxamide]	> 10000
CN(C)CCN(C)C(=O)[C@@]1(O)CCN(c2ccccc2)C1=O [A61]	> 10000
O=C(CNC(=O)[C@@]1(O)CCN(c2ccccc2)C1=O)N1CCOCC1 [A62, N-(2-Morpholin-4-yl-2-oxoethyl)-(S)-3-hydroxy-2-oxo-1-phenyl-pyrrolidine-3-carboxamide]	> 10000
CN1CCCC1CCNC(=O)[C@@]1(O)CCN(c2ccccc2)C1=O (stereo partly drawn) [A63, N-[2-(1-Methylpyrrolidin-2-yl)ethyl]-(S)-3-hydroxy-2-oxo-1-phenyl-pyrrolidine-3-carboxamide]	> 10000
CN(C)CCCNC(=O)[C@@]1(O)CCN(c2ccccc2)C1=O [A64, N-(3-Dimethylaminopropyl)-(S)-3-hydroxy-2-oxo-1-phenylpyrrolidine-3-carboxamide]	> 10000
O=C(NCc1cc(F)cc(Cl)c1)C1(O)CCCN(c2ccccc2)C1=O (stereo not shown) [A65, N-(3-Chloro-5-fluorobenzyl)-3-hydroxy-2-oxo-1-phenylpiperidine-3-carboxamide]	10 to 1000
O=C(NCc1cc(F)cc(Cl)c1)[C@@]1(O)CCCCN(c2ccccc2)C1=O [A66, N-(3-chloro-5-fluorobenzyl)-(S)-3-hydroxy-2-oxo-1-phenylazepane-3-carboxamide]	1000 to 10000
O=C(NCc1cc(F)cc(Cl)c1)[C@]1(O)CCCCN(c2ccccc2)C1=O [A67, N-(3-chloro-5-fluorobenzyl)-(R)-3-hydroxy-2-oxo-1-phenylazepane-3-carboxamide]	> 10000
O=C(NCc1cc(F)cc(Cl)c1)C1(O)CCN(c2ccc3cc[nH]c3c2)C1=O (stereo not shown) [A68, N-(3-Chloro-5-fluorobenzyl)-3-hydroxy-1-(1H-indol-6-yl)-2-oxo-pyrrolidine-3-carboxamide]	10 to 1000
NC(=O)c1cccc(NC(=O)c2cccc(N3CCC(O)(C(=O)NCc4cc(F)cc(Cl)c4)C3=O)c2)c1 (stereo not shown) [A69, N-(3-Chloro-5-fluorobenzyl)-1-[3-(3-carbamoylphenylcarbamoyl)-phenyl]-3-hydroxy-2-oxo-pyrrolidine-3-carboxamide]	10 to 1000
C/C=C/C(=O)[C@@]1(O)CCN(c2ccccc2)C1=O [A70, (S)-3-((E)-but-2-enoyl)-3-hydroxy-1-phenylpyrrolidin-2-one]	> 10000
CC(=O)N1CCC2(CC1)CN(c1ccccc1)C(=O)[C@@]2(O)C(=O)NCc1cc(F)cc(Cl)c1 [A71, N-(3-Chloro-5-fluorobenzyl)-(S)-8-acetyl-4-hydroxy-3-oxo-2-phenyl-2,8-diazaspiro[4.5]decane-4-carboxamide]	> 10000
O=C(c1cccc(N2CC[C@](O)(C(=O)NCc3cc(F)cc(Cl)c3)C2=O)c1)N1CCOCC1 [A72, N-(3-Chloro-5-fluorobenzyl)-(S)-3-hydroxy-1-[3-(morpholine-4-carbonyl)phenyl]-2-oxopyrrolidine-3-carboxamide]	10 to 1000
CN(c1cccc(N2CCC(O)(C(=O)NCc3cc(F)cc(Cl)c3)C2=O)c1)S(C)(=O)=O (stereo not shown) [A73, N-(3-Chloro-5-fluorobenzyl)-3-hydroxy-1-[3-(methanesulfonyl-methylamino)phenyl]-2-oxo-pyrrolidine-3-carboxamide]	10 to 1000
O=C(c1cccc(N2CC[C@@](O)(C(=O)NCc3cc(F)cc(Cl)c3)C2=O)c1)N1CCOCC1 [A74, N-(3-Chloro-5-fluorobenzyl)-(R)-3-hydroxy-1-[3-(morpholine-4-carbonyl)phenyl]-2-oxopyrrolidine-3-carboxamide]	> 10000
O=C(NC1CC1)c1cccc(N2CC[C@](O)(C(=O)NCc3cc(F)cc(Cl)c3)C2=O)c1 [A75, N-(3-Chloro-5-fluorobenzyl)-(S)-1-(3-cyclopropylcarbamoylphenyl)-3-hydroxy-2-oxopyrrolidine-3-carboxamide]	10 to 1000

SMILES	IC50 [nM]
O=C(NC1CCC1)c1cccc(N2CCC(O)(C(=O)NCc3cc(F)cc(Cl)c3)C2=O)c1 (stereo not shown) [A76, N-(3-Chloro-5-fluorobenzyl)-1-(3-cyclobutylcarbamoylphenyl)-3-hydroxy-2-oxopyrrolidine-3-carboxamide]	10 to 1000
O=C(c1cccc(N2CC[C@](O)(C(=O)NCc3cc(F)cc(Cl)c3)C2=O)c1)N1CCCC1 [A77, N-(3-Chloro-5-fluorobenzyl)-(S)-3-hydroxy-2-oxo-1-[3-(pyrrolidine-1-carbonyl)phenyl]pyrrolidine-3-carboxamide]	10 to 1000
CCC(=O)Nc1ccc(N2CCC(O)(C(=O)NCc3cc(F)cc(Cl)c3)C2=O)cn1 (stereo not shown) [A78, N-(3-Chloro-5-fluorobenzyl)-3-hydroxy-2-oxo-1-(6-propionylaminopyridin-3-yl)-pyrrolidine-3-carboxamide]	10 to 1000
CCS(=O)(=O)Nc1cccc(N2CC[C@](O)(C(=O)NCc3cc(F)cc(Cl)c3)C2=O)c1 [A79, N-(3-Chloro-5-fluorobenzyl)-(S)-1-(3-ethanesulfonylaminophenyl)-3-hydroxy-2-oxopyrrolidine-3-carboxamide]	10 to 1000
O=C(NCc1cc(F)cc(Cl)c1)[C@@]1(O)CCN(c2cccc(NS(=O)(=O)C3CC3)c2)C1=O [A80, N-(3-Chloro-5-fluorobenzyl)-(S)-1-(3-cyclopropanesulfonylamino-phenyl)-3-hydroxy-2-oxo-pyrrolidine-3-carboxamide]	10 to 1000
O=C(NCc1cc(F)cc(Cl)c1)[C@@]1(O)CCCN(Cc2ccccc2)C1=O [A81, N-(3-Chloro-5-fluorobenzyl)-(S)-1-benzyl-3-hydroxy-2-oxopiperidine-3-carboxamide]	10 to 1000
O=C(NC1CC1)c1cccc(N2CC[C@@](O)(C(=O)NCc3cc(F)cc(Cl)c3)C2=O)c1 [A82, N-(3-Chloro-5-fluorobenzyl)-(R)-1-(3-cyclopropylcarbamoylphenyl)-3-hydroxy-2-oxopyrrolidine-3-carboxamide]	1000 to 10000
O=C(c1cccc(N2CC[C@@](O)(C(=O)NCc3cc(F)cc(Cl)c3)C2=O)c1)N1CCCC1 [A83, N-(3-Chloro-5-fluorobenzyl)-(R)-3-hydroxy-2-oxo-1-[3-(pyrrolidine-1-carbonyl)phenyl]pyrrolidine-3-carboxamide]	> 10000
CCS(=O)(=O)Nc1cccc(N2CC[C@@](O)(C(=O)NCc3cc(F)cc(Cl)c3)C2=O)c1 [A84, N-(3-Chloro-5-fluorobenzyl)-(R)-1-(3-ethanesulfonylaminophenyl)-3-hydroxy-2-oxopyrrolidine-3-carboxamide]	1000 to 10000
O=C(NCc1cc(F)cc(Cl)c1)[C@]1(O)CCN(c2cccc(NS(=O)(=O)C3CC3)c2)C1=O [A85, N-(3-Chloro-5-fluorobenzyl)-(R)-1-(3-cyclopropanesulfonylamino-phenyl)-3-hydroxy-2-oxo-pyrrolidine-3-carboxamidee]	> 10000
O=C(NCc1cc(F)cc(Cl)c1)[C@]1(O)CCCN(Cc2ccccc2)C1=O [A86, N-(3-Chloro-5-fluorobenzyl)-(R)-1-benzyl-3-hydroxy-2-oxo-piperidine-3-carboxamide]	> 10000
N#Cc1c[nH]c2ccc(N3CCC(O)(C(=O)NCc4cc(F)cc(Cl)c4)C3=O)cc12 (stereo not shown) [A87, N-(3-Chloro-5-fluorobenzyl)-1-(3-cyano-1H-indol-5-yl)-3-hydroxy-2-oxopyrrolidine-3-carboxamide]	10 to 1000
O=C(NCCO)c1cccc(N2CC[C@](O)(C(=O)NCc3cc(F)cc(Cl)c3)C2=O)c1 [A88, N-(3-Chloro-5-fluorobenzyl)-(S)-3-hydroxy-1-[3-(2-hydroxy-ethylcarbamoyl)phenyl]-2-oxo-pyrrolidine-3-carboxamide]	10 to 1000
C=C(Cc1ccccc1)C(=O)C1(O)CCN(c2ccccc2)C1=O (stereo not shown) [A89, 3-(2-benzylacryloyl)-3-hydroxy-1-phenylpyrrolidin-2-one]	> 10000
O=C(NCc1cc(F)cc(Cl)c1)[C@@]1(O)CCN(CCc2ccccc2)C1=O [A90, N-(3-Chloro-5-fluorobenzyl)-(S)-3-hydroxy-2-oxo-1-phenethyl-pyrrolidine-3-carboxamide]	10 to 1000
O=C(NCCO)c1cccc(N2CC[C@@](O)(C(=O)NCc3cc(F)cc(Cl)c3)C2=O)c1 [A91, N-(3-Chloro-5-fluorobenzyl)-(R)-3-hydroxy-1-[3-(2-hydroxy-ethylcarbamoyl)phenyl]-2-oxo-pyrrolidine-3-carboxamide]	> 10000
O=C(NCc1cc(F)cc(Cl)c1)[C@]1(O)CCN(CCc2ccccc2)C1=O [A92, N-(3-Chloro-5-fluorobenzyl)-(R)-3-hydroxy-2-oxo-1-phenethyl-pyrrolidine-3-carboxamide]	1000 to 10000
CN(CCO)C(=O)c1cccc(N2CC[C@](O)(C(=O)NCc3cc(F)cc(Cl)c3)C2=O)c1 [A93, N-(3-Chloro-5-fluorobenzyl)-(S)-3-hydroxy-1-{3-[(2-hydroxy-ethyl)methylcarbamoyl]phenyl}-2-oxopyrrolidine-3-carboxamide]	1000 to 10000
